{"source": "patent US6386145B1", "about": "“Process for curing diseases in cultured fish” (B. L. Mitchell, Inc., priority 2000, dated 2002)", "system": "catfish diagnosed as having PGD (proliferative gill disease)", "experiment": "treatment of rearing pond containing catfish diseased with PGD", "type": "in vivo", "method": "In order to effect these concentrations in the tank or pond where the diseased fish are contained the concentrated solution of Chloramine-T is prepared for using the correct amount of Chloramine-T for the volume of water which is contained in the tank or pond where the diseased fish reside. This concentrated solution is then spread evenly over the surface of the pond or tank via the use of a chemical boat. In order to aid mixing aeration equipment is run one hour before the application and 35 hours after the application.\n1. A pond of 17 acres, 4.5 feet deep holding approximately 2 million catfish contained approximately 76.5 acre feet of water. […] […] Upon examination the whole fish population was diagnosed as having PGD in various stages with some of the fish dying. 411.57 pounds of Chloramine-T was dissolved in 50 gallons of water contained in a tank on a chemical boat, as the boat moved over the pond the Chloramine-T was applied evenly over the surface of the pond.", "key": {"[1]": {"details": "Example 1, catfish 2 to 4 inches, 2 ppm, after 72 hours"}, "[2]": {"details": "Example 2, catfish 6 to 9 inches, 2 ppm, after 72 hours"}, "[3]": {"details": "Example 3, catfish 1 to 1.25 pounds, 2 ppm, after 72 hours"}, "[4]": {"details": "Example 4, catfish 8 to 11 inches, 2 ppm, after 72 hours"}, "[5]": {"details": "Example 5, catfish 8 to 11 inches, 1.5 ppm, after 72 hours"}}}
{"smiles": "Cc1ccc(S(=O)(=O)NCl)cc1.[Na]", "note": "[Chloramine-T, N-Sodium, N-chloro-para-toluenesulfonamide]", "values": [{"measurement": "death rate of the fish", "setting": "Example 1, catfish 2 to 4 inches, approx. 2 million, 2 ppm in pond, 24 hours after application", "value": "substantially decreased"}, {"measurement": "death rate of the fish", "setting": "Example 1, catfish 2 to 4 inches, 2 ppm, after 48 hours", "value": "further decreased"}, {"measurement": "PGD status upon examination of the fish population", "setting": "[1]", "value": "in remission"}, {"measurement": "death of fish", "setting": "[1]", "value": "essentially stopped"}, {"measurement": "PGD status upon examination of the fish population", "setting": "Example 1, catfish 2 to 4 inches, 2 ppm, after 96 hours", "value": "free of PGD"}, {"measurement": "death rate of the fish", "setting": "Example 2, catfish 6 to 9 inches, approx. 1 million, 2 ppm in pond, 24 hours after application", "value": "substantially decreased"}, {"measurement": "death rate of the fish", "setting": "Example 2, catfish 6 to 9 inches, 2 ppm, after 48 hours", "value": "further decreased"}, {"measurement": "PGD status upon examination of the fish population", "setting": "[2]", "value": "in remission"}, {"measurement": "death of fish", "setting": "[2]", "value": "essentially stopped"}, {"measurement": "PGD status upon examination of the fish population", "setting": "Example 2, catfish 6 to 9 inches, 2 ppm, after 96 hours", "value": "free of PGD"}, {"measurement": "death rate of the fish", "setting": "Example 3, catfish 1 to 1.25 pounds, approx. 125,000, 2 ppm in pond, 24 hours after application", "value": "substantially decreased"}, {"measurement": "death rate of the fish", "setting": "Example 3, catfish 1 to 1.25 pounds, 2 ppm, after 48 hours", "value": "further decreased"}, {"measurement": "PGD status upon examination of the fish population", "setting": "[3]", "value": "in remission"}, {"measurement": "death of fish", "setting": "[3]", "value": "essentially stopped"}, {"measurement": "PGD status upon examination of the fish population", "setting": "Example 3, catfish 1 to 1.25 pounds, 2 ppm, after 96 hours", "value": "free of PGD"}, {"measurement": "death rate of the fish", "setting": "Example 4, catfish 8 to 11 inches, approx. 700,000, 2 ppm in pond, 24 hours after application", "value": "substantially decreased"}, {"measurement": "death rate of the fish", "setting": "Example 4, catfish 8 to 11 inches, 2 ppm, after 48 hours", "value": "further decreased"}, {"measurement": "PGD status upon examination of the fish population", "setting": "[4]", "value": "in remission"}, {"measurement": "death of fish", "setting": "[4]", "value": "essentially stopped"}, {"measurement": "PGD status upon examination of the fish population", "setting": "Example 4, catfish 8 to 11 inches, 2 ppm, after 96 hours", "value": "free of PGD"}, {"measurement": "death rate of the fish", "setting": "Example 5, catfish 8 to 11 inches, approx. 700,000, 1.5 ppm in pond, 24 hours after application", "value": "no decrease"}, {"measurement": "death rate of the fish", "setting": "Example 5, catfish 8 to 11 inches, 1.5 ppm, after 48 hours", "value": "not decreased"}, {"measurement": "PGD status upon examination of the fish population", "setting": "[5]", "value": "continued unabated"}, {"measurement": "death of fish", "setting": "[5]", "value": "continued"}, {"measurement": "PGD status upon examination of the fish population", "setting": "Example 5, catfish 8 to 11 inches, 1.5 ppm, after 96 hours", "value": "continued to die and be afflicted with PGD"}, {"measurement": "survival of the diseased fish", "setting": "Example 6, catfish 8 to 11 inches, approx. 450,000, 387 pounds in 48 acre feet, printed 1.5 ppm, 24 hours after application", "value": "all of the fish were dead"}, {"measurement": "control of PGD in diseased catfish (summary of Examples 1 through 6)", "setting": "concentrations of less than 2 ppm", "value": "ineffective"}, {"measurement": "toxicity to diseased catfish (summary of Examples 1 through 6)", "setting": "concentrations of more than 3 ppm", "value": "kill the diseased catfish"}, {"measurement": "control of PGD in diseased catfish (summary of Examples 1 through 6)", "setting": "use in accordance with the process of the invention (2 to 3 ppm)", "value": "eliminates PGD"}]}
